Reference: the NIST ThermoML archive (doi:10.1016/j.jct.2007.11.002)

Assay: xn = mol fraction of the nth substance listed
Conditions: 101 kPa, Liquid; for viscosity: Capillary tube (Ostwald / Ubbelohde) method

CN1CCOCC1 [N-methylmorpholine] + Cc1ccccc1
Conditions | mass density, 298.15 K [kg/m3] | mass density, 303.15 K [kg/m3] | mass density, 313.15 K [kg/m3] | mass density, 323.15 K [kg/m3] | viscosity, 298.15 K [mPa·s] | viscosity, 303.15 K [mPa·s] | viscosity, 313.15 K [mPa·s] | viscosity, 323.15 K [mPa·s]
x2 = 0.0457 | 912.04 | 907.63 | 898.17 | 879.98 | 0.847 | 0.839 | 0.807 | 0.795
x2 = 0.1167 | 908.88 | 904.69 | 895.22 | 877.67 | 0.806 | 0.798 | 0.774 | 0.759
x2 = 0.1822 | 905.97 | 901.78 | 892.37 | 875.42 | 0.772 | 0.765 | 0.739 | 0.723
x2 = 0.2455 | 903.08 | 898.89 | 889.47 | 873.11 | 0.739 | 0.732 | 0.705 | 0.687
x2 = 0.2843 | 901.28 | 897.11 | 887.68 | 871.67 | 0.721 | 0.712 | 0.684 | 0.665
x2 = 0.3211 | 899.58 | 895.42 | 885.99 | 870.33 | 0.704 | 0.692 | 0.664 | 0.643
x2 = 0.3862 | 896.61 | 892.43 | 882.99 | 867.93 | 0.678 | 0.664 | 0.634 | 0.612
x2 = 0.4327 | 894.39 | 890.21 | 880.77 | 866.14 | 0.659 | 0.645 | 0.614 | 0.59
x2 = 0.4841 | 891.92 | 887.74 | 878.29 | 864.14 | 0.643 | 0.627 | 0.596 | 0.57
x2 = 0.5512 | 888.55 | 884.36 | 874.87 | 861.34 | 0.622 | 0.606 | 0.573 | 0.546
x2 = 0.5943 | 886.32 | 882.15 | 872.61 | 859.47 | 0.612 | 0.594 | 0.56 | 0.531
x2 = 0.6341 | 884.21 | 880.05 | 870.53 | 857.79 | 0.602 | 0.586 | 0.551 | 0.521
x2 = 0.6877 | 881.26 | 877.11 | 867.65 | 855.41 | 0.594 | 0.575 | 0.539 | 0.507
x2 = 0.7129 | 879.83 | 875.68 | 866.2 | 854.17 | 0.588 | 0.571 | 0.535 | 0.503
x2 = 0.7648 | 876.73 | 872.59 | 863.14 | 851.63 | 0.583 | 0.561 | 0.524 | 0.488
x2 = 0.7895 | 875.15 | 871.01 | 861.57 | 850.28 | 0.581 | 0.559 | 0.521 | 0.487
x2 = 0.8444 | 871.87 | 867.75 | 858.32 | 847.56 | 0.571 | 0.549 | 0.51 | 0.474
x2 = 0.8873 | 869.14 | 865.03 | 855.6 | 845.26 | 0.569 | 0.543 | 0.503 | 0.458
x2 = 0.9348 | 866.19 | 862.08 | 852.67 | 842.77 | 0.558 | 0.536 | 0.49 | 0.444
x2 = 0.9741 | 863.67 | 859.57 | 850.02 | 840.51 | 0.554 | 0.527 | 0.477 | 0.429
